Entries after “also recorded” stand apart in the source; their conditions may differ.
What was measured:
[1] = target: human estrogen receptor (ER, wild type, GLY at position 400) (Homo sapiens, UniProt P03372)
Protocol: (§1) (a) Induction of CAT activity. CV-1 cells were transiently cotransfected with 2 μg of ERE-CAT reporter plasmid alone (control) or together with 1 μg of receptor expression vector and 3 μg of β-gal expression vector (pCH110, Pharmacia) which served as an internal control. Carrier DNA (Bluescript) was added to 23 μg total DNA. […] CAT activity is corrected for β-gal activity.
CV-1 cells were cotransfected with 2 μg ERE reporter plasmid alone (control) and with decreasing amounts of ER expression vector as indicated. […] A representative experiment is shown.
(§2) CV-1 cells were cotransfected as described under (a) using ER (c) or ERval (d) expression vectors and reporter plasmid.
(§3) CV-1 cells were transiently cotransfected with ER or ERval expression vectors and reporter plasmid as described in FIG. 1. […] CAT enzyme activities presented are corrected for transfection efficiency by measuring β-gal expression.
CV-1 cells were cotransfected as described above. […] CAT activities were measured as described.
To investigate the transcriptional regulatory properties of the human estrogen receptor, transient cotransfection experiments were carried out in which CV-1 cells were transfected with an estrogen receptor (ER) expression vector and an estrogen responsive CAT (chloramphenicol acetyl-transferase) reporter gene. We investigated the "wild type" receptor^9 that carries a GLY at position 400 (ER) and a mutant receptor that contains a VAL at position 400 (ERval). This mutant receptor was cloned from a human mammary carcinoma cell line cDNA library and was originally thought to represent the wild type hER^10,11. In addition we investigated another mutant receptor that we obtained by deleting the coding sequences for amino acids 442-498 (ERdel) of the hormone binding domain. The estrogen response element (ERE) we use here is a palindromic sequence ([…]) that is derived from the vitellogenin gene promoter^12.
(§4) The transient transfection was performed as follows. […] After 24 h cultures were washed with PBS and new medium was added. A modified calcium phosphate precipitation procedure was used for transient transfection^20. 18 h after transfections, cultures were washed twice with PBS, and fresh medium was added together with the desired amount of hormone. After 24 h. cells were collected and cell extract was prepared. β-gal assay was performed as described^21. CAT activity was assayed by using ^3 H-acetylated chloramphenicol and a mixed-phase scintillation measurement, as described in reference 22, below. CPM corrected for β-gal activity represents relative CAT activity. ERE-CAT was constructed by inserting the above synthetic ERE-oligonucleotide with BglII linkers into the BamH1 site of pBLCAT2^23.

[2] = tested on: mutant estrogen receptor ERval (VAL at position 400); assay: transient cotransfection ERE-CAT reporter assay in CV-1 cells, ERval; format: cell-based, human
Protocol: as §1, §2, §3
To investigate the transcriptional regulatory properties of the human estrogen receptor, transient cotransfection experiments were carried out in which CV-1 cells were transfected with an estrogen receptor (ER) expression vector and an estrogen responsive CAT (chloramphenicol acetyl-transferase) reporter gene. We investigated the "wild type" receptor^9 that carries a GLY at position 400 (ER) and a mutant receptor that contains a VAL at position 400 (ERval). This mutant receptor was cloned from a human mammary carcinoma cell line cDNA library and was originally thought to represent the wild type hER^10,11. […]

ERval [3] = assay: gel retardation assay, ERval binding to 32P-labelled ERE; parameters: species or system human; details: for effect on binding of ERval to the ERE: high concentrations, FIG. 2b
Protocol: (§5) (a) DNA binding of ER and ER mutants. […] As control, the labelled ERE (lane 1) and the lysate (lane 2) were run alone. Binding of receptors to labelled ERE was competed with 50 fold excess of unlabelled ERE(S) or nonspecific unlabelled oligonucleotides (N).
(§6) To investigate the ER protein-DNA interaction gel retardation assays were performed^5,13. Receptor proteins were synthesized by in vitro transcription/translation^5,7, incubated with ^32 P-labelled ERE, and run on a non-denaturing acrylamide gel (FIG. 2a). The assay was performed as follows. ER and ERval cDNA cloned in Bluescript (Stratagene) were transcribed using T7 or T3 RNA polymerase, and translated, using rabbit reticulocyte translation system (Promega) as described^5. 5 μl of in vitro translated receptor protein were incubated with ^32 P labeled ERE fragment in a reaction mixture containing 20 mM Hepes buffer pH 7.9, 50 mM KCl, 1 mM DTT, 2.5 mM MgCl2, 10% glycerol, and 1 μg poly (dI-dC) at 25° C. for 20 min. Reaction mixtures were loaded on a 5% non-denaturing polyacrylamide gel containing 10 mM HEPES pH 7.9 and 3.3 mM sodium acetate pH 7.9, and electrophoresed. Gels were run at 4° C., 140 V for 3 h with continued circulation of buffer.

ER = ER (Homo sapiens, UniProt P03372); details: 10^-8 M OH-Tam, 10^-7 M T3, FIG. 5
Protocol: (§7) A representative experiment is shown.
as §4

ERval [4] = assay: repressor assay: ERval cotransfected with ER-TRα and ERE-CAT in CV-1 cells; format: cell-based, human; details: 10^-8 M OH-Tam, 10^-7 M T3, FIG. 5
Protocol: CAT activities were measured as described in the Example. A representative experiment is shown.
The transient transfection was performed as follows.

ER-ERE complex = assay: dissociation of the ER-ERE complex (gel retardation); format: binding, human; details: 10^-8 M ligand, 50 fold excess unlabelled ERE, 10° C., FIG. 6
Protocol: At time 0, a 50 fold excess of non-labelled ERE was added. After incubation at 10° C. for the indicated time intervals, aliquots were loaded on a running non-denaturing 5% polyacrylamide gel.
The assay was performed as follows.
To measure the stability of the ER-ERE complexes in the presence and absence of ligands, the dissociation of the complexes was analyzed (FIG. 6).

ERdel = details: 10^-8 M E2, FIG. 2a
Protocol: as §5, §6

[5] = tested on: TRα-ERval hybrid receptor; details: 10^-8 M E2, FIG. 4c
Protocol: as §6

ER-TRα hybrid receptor = assay: ERE-CAT activation by hybrid receptor ER-TRα alone in CV-1 cells; format: cell-based, human; details: 10^-7 M T3, FIG. 5
Protocol: as §7, §4

[6] = target: estrogen receptor alpha (ER, wild type, Gly400) (Homo sapiens, UniProt P03372 P03372:1-595); assay: EMSA; strong with and without E2 or Tam; 20 mM Hepes pH 7.9, 50 mM KCl, 2.5 mM MgCl2, poly(dI-dC), 25 C; dissociation not substantially changed by E2 or OH-Tam (FIG.); details: tags: rabbit reticulocyte lysate; chain copies: 2; label: 32P
[7] = target: ERval (estrogen receptor Val400) (Homo sapiens, UniProt P03372 P03372:1-595, G400V); assay: EMSA; with E2; details: tags: rabbit reticulocyte lysate; chain copies: 2; label: 32P
Chain of ERval (estrogen receptor Val400) (P03372 whole entry G400V, one chain of several): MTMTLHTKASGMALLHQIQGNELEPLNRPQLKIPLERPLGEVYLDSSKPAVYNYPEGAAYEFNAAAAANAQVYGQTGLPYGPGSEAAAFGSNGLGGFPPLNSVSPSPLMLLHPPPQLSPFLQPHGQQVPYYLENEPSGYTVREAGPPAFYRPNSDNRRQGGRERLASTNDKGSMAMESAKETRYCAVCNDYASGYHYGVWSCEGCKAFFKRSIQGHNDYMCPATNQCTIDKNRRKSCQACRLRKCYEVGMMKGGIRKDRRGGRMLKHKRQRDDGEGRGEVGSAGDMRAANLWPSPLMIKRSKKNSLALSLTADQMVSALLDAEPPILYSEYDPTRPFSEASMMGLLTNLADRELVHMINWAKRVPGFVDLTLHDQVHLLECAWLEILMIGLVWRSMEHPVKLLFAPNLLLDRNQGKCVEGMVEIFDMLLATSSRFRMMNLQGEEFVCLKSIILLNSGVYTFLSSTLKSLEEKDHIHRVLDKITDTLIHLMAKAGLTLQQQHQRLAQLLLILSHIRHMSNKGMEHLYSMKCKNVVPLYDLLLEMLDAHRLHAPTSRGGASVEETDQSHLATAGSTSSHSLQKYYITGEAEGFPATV

Chain of human estrogen receptor (ER, wild type, GLY at position 400) (P03372 whole entry): as the sequence (P03372 whole entry G400V, one chain of several) above, with V400G counted along it
Chain of ER (P03372 whole entry): as the sequence (P03372 whole entry G400V, one chain of several) above, with V400G counted along it
Chain of estrogen receptor alpha (ER, wild type, Gly400) (P03372 whole entry, one chain of several): as the sequence (P03372 whole entry G400V, one chain of several) above, with V400G counted along it

Molecule: 4-hydroxytamoxifen [OH-Tam]
- OH-Tam concentration sufficient to repress E2 action on ER [1]: nanomolar concentrations
- concentration dependence of the agonist effect on ER [1]: does not increase with increasing concentrations of ligand
- effect on ER basal level activity [1]: do not significantly repress
- effect on basal level activity of ER at very low receptor concentrations [1]: increases the basal level activity
- effect on transcriptional enhancing activity of ER [1]: maintained at the constitutive basal level
- effect on activation capacity of ERval ([2]; OH-Tam 10^-8 M, no E2, FIG. 3a): restores the basal gene activation capacity; also recorded: increased by OH-Tam (10^-8 M) to the basal level of ER wild type
- effect on ERval activation capacity in the presence of E2 ([2]; OH-Tam with E2 10^-8 M, FIG. 3a): reduced to the wild type basal level
- effect on binding of ERval to the ERE (ERval [3]): drastically increase
- effect on repression capacity of ER towards ER-TRα (ER): slightly increases
- repression of ER-TRα activity by ERval (ERval [4]): restores the ability of ERval to repress; also recorded: only an efficient repressor of ER-TRα in the presence of OH-Tam
- effect on dissociation of the ER-DNA complex (ER-ERE complex): no substantial difference

Molecule: C[C@]12CC[C@@H]3c4ccc(O)cc4CC[C@H]3[C@@H]1CC[C@@H]2O [E2, estradiol]
- binding of ERval to ERE with E2 (ERval [3]; 10^-8 M E2, FIG. 2a): binds strongly to ERE when E2 is included
- binding of ERdel to DNA with and without E2 (ERdel): binds poorly to DNA in the presence and absence of E2
- increase of affinity of TRα-ERval for DNA (TRE) [5]: several fold

Molecule: N[C@@H](Cc1cc(I)c(Oc2ccc(O)c(I)c2)c(I)c1)C(=O)O [T3]
- ERE-CAT gene expression by ER-TRα alone (ER-TRα hybrid receptor): efficiently enhances

Molecule: CC/C(=C(\c1ccccc1)c1ccc(OCCN(C)C)cc1)c1ccccc1 [Tam, tamoxifen]
- effect on binding of ERval to the ERE (ERval [3]): drastically increase

B1: ERE palindrome (dsDNA)
DNA 1: TCAGGTCACTGTGACCTGA
DNA 2: TCAGGTCACAGTGACCTGA
- binding result [6]: binds
- binding result [7]: binds

Source: US5183736A, “Methods using estrogen receptor as a constitutive transcriptional activator and a repressor” (La Jolla Cancer Research Foundation, priority 1990, dated 1993)
